# Assay results published in ChEMBL document CHEMBL5518159, “Thiazole-based analogues as potential antibacterial agents against methicillin-resistant Staphylococcus aureus (MRSA) and their SAR elucidation” (Eur J Med Chem, 2023).
# What was measured:
# Staphylococcus aureus [1] = test: Antibacterial activity against […] Staphylococcus aureus ATCC 6538 assessed as reduction in bacterial growth incubated for 18 hrs by CLSI based broth-dilution method; assay type: functional
# DNA gyrase [2] = target: DNA gyrase (Escherichia coli, UniProt P0AES4+P0AES6); test: Inhibition of Escherichia coli DNA gyrase assessed as reduction in enzyme-mediated supercoiling of relaxed plasmid by fluorescence polarization assay; assay type: protein-complex assay
# DNA gyrase [3] = target: DNA gyrase (Staphylococcus aureus, UniProt P0A0K8+P20831); test: Inhibition of Staphylococcus aureus DNA gyrase; assay type: protein-complex assay
# Staphylococcus aureus [4] = test: Antibacterial activity against […] Staphylococcus aureus ATCC 25923 assessed as reduction in bacterial growth incubated for 24 hrs by micro-broth dilution method; assay type: functional
# Staphylococcus aureus [5] = test: Antibacterial activity against […] Staphylococcus aureus ATCC 6538 assessed as microbial growth inhibition incubated for 24 hrs by broth micro-dilution analysis; assay type: functional
# Staphylococcus aureus [6] = test: Antibacterial activity against methicillin-resistant Staphylococcus aureus assessed as reduction in microbial growth measured for 24 hrs by CLSI based broth microdilution method; assay type: functional
# Staphylococcus aureus [7] = test: Antibacterial activity against Staphylococcus aureus assessed as reduction in bacterial growth by CLSI based two-fold microdilution method; assay type: functional
# Chain of DNA gyrase (Staphylococcus aureus, UniProt P0A0K8+P20831) (P0A0K8 whole entry): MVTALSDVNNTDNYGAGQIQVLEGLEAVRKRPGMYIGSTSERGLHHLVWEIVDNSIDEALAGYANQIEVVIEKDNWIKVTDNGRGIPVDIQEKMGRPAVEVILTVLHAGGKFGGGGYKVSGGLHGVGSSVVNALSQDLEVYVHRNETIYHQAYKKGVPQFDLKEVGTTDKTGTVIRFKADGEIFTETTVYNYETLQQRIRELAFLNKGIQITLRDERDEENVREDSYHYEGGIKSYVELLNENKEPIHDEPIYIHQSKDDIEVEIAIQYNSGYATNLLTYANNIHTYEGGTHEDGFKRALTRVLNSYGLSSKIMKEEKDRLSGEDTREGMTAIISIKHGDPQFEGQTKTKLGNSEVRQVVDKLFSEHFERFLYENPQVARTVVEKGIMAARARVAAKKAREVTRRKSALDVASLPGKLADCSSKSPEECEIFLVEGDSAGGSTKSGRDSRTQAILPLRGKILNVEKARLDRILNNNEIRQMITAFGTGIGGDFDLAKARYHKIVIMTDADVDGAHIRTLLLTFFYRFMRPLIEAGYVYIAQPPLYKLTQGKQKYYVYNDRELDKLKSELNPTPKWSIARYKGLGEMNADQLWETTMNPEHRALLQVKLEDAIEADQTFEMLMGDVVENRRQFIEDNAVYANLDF
# Chain of DNA gyrase (Staphylococcus aureus, UniProt P0A0K8+P20831) (P20831 whole entry): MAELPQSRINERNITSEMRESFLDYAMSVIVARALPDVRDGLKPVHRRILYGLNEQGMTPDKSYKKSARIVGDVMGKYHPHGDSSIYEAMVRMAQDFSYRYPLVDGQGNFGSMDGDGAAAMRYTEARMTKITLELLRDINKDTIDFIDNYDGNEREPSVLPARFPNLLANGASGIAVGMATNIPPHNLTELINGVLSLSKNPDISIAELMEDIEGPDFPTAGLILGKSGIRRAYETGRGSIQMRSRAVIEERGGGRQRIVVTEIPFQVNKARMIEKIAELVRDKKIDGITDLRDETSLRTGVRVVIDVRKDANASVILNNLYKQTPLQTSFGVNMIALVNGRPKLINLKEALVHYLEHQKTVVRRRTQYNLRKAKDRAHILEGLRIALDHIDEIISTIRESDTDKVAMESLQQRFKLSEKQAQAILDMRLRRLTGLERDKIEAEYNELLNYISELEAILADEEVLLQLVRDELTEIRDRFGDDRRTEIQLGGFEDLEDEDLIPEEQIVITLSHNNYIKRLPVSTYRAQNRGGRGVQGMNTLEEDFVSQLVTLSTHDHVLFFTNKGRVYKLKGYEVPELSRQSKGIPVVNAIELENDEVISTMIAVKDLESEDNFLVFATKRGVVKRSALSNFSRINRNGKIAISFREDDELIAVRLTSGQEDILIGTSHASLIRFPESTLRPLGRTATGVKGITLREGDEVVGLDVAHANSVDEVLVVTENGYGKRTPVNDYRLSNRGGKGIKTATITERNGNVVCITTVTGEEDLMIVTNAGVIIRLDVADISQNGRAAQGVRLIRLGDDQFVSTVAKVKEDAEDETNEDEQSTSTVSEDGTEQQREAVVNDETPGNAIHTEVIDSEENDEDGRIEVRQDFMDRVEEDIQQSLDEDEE
compound,measurement,setting,value
O=C(O)c1cccc(N2C(=O)/C(=C/c3c[nH]c4ccccc34)SC2=S)c1,MIC,Staphylococcus aureus [1],12 µg/mL
COC(=O)CC(=O)Nc1nc2c(s1)C[C@@H](NC(=O)c1[nH]c(C)c(Br)c1Cl)CC2,IC50,DNA gyrase [2],0.056 µM
same,IC50,DNA gyrase [3],3.7 µM
same,MIC,Staphylococcus aureus [4],8 µg/mL
CCCC(C(=O)O)N1C(=O)/C(=C/c2c[nH]c3ccccc23)SC1=S (configuration not stated),MIC,Staphylococcus aureus [5],250 µg/mL
NC(=S)N/N=C/C1=CC(c2ccc([N+](=O)[O-])cc2[N+](=O)[O-])C=C1c1ccc(Cl)cc1Cl (configuration not stated),MBC,Staphylococcus aureus [6],38 µg/mL
C=C(C)[C@@H]1CC=C2c3sc(-c4cc(O)cc(O)c4)nc3C[C@@H](C)[C@]2(C)C1,MIC,Staphylococcus aureus [7],3.12 µg/mL
